Assay results as given in patent publication EP0108606B1, “Steroid compounds” (STERWIN AG., priority 1982, dated 1984).
Where two headings read alike, the source gives them in different places.

Assays:
[1] = In vitro dissolution or release testing of products with different trilostane particle sizes; type: physicochemical; conditions: products containing batches of trilostane of differing particle sizes
[2] = Bioavailability Test: plasma levels after oral 60 mg capsules of different trilostane particle size; type: in vivo, volunteers; conditions: for AUC at 24 h: human, plasma, po, 120 mg, 120 mg trilostane (2 x 60 mg capsules) oral, empty stomach, eight volunteers, read-out: Trilostane AUCo^24
Method: 60 mg capsules were prepared as described in Example 1 by wet granulation techniques using batches of trilostane comprising (i) particles having a mean equivalent sphere volume diameter of about 10 µm (at least about 95% of the particles having a particle size of less than about 50 pm), (ii) particles of mean equivalent sphere volume diameter of about 45 µm, and (iii) particles of mean equivalent sphere volume diameter greater than 100 pm.
In a three part double blind cross-over study on eight volunteers, each volunteer received a dosage of 120 mg of trilostane (2 x 60 mg capsules) on an empty stomach with 50 ml of tap water. Blood samples (8 ml) were taken pre-medication and at 0.5, 1.0, 2.0, 3.0, 4.0, 5.0, 6.0, 8.0, 10.0 and 24.0 hours and assayed for plasma levels of trilostane and trilostane metabolite. Plasma concentrations were processed by a computer programme giving maximum concentration in plasma (Cmax) and time taken to reach this maximum (Tmax) by inspection. Values for the area under the curve of concentration against time over the time span 0 to t ( [formula] ―where t is time) were then calculated using the trapezoid rule and statistical analysis was carried out using the Students paired t-test.
The following Table I sets out [formula] values (mg.ml^-1.h) for trilostane and 17-keto metabolite.

With C[C@]12CC[C@H]3[C@@H](CC[C@@]45O[C@@H]4C(O)=C(C#N)C[C@]35C)[C@@H]1CC[C@@H]2O [Trilostane, 2a-cyano-4a,5a-epoxyandrostan-17a-ol-3-one] the “dissolution or release properties” value [1] was “could not be differentiated”, the “ratio of Metabolite AUC to Trilostane AUCo^4” value (shortened to “ratio of Metabolite AUC”) ([2]; 10 µm material) was 3.1 and the “ratio of Metabolite AUC” value ([2]; 45 µm material) was 4.5. The “ratio of Metabolite AUC” value ([2]; 100 µm material) was 6.5, the “plasma levels at 24 hours” value ([2]; 24 hours after 120 mg oral, in most cases) was “could not be detected” and the AUC at 24 h ([2]; particle size 10 µm) was 1600 µg·h/mL. For the same compound, the AUC at 24 h ([2]; particle size 45 µm) was 600 µg·h/mL and the AUC at 24 h ([2]; particle size 100 µm) was 200 µg·h/mL.
